Values after ≈ are worked out from the molar mass of the structure shown. “Also recorded” adds a separate entry of the source. Numbered stars: 1 amine (or outer) side, 2 acyl side, 3 side chain; on linkers, the order of the positions; unused ones are H or OH. Bridge positions count the residues as written; N and C are the ends. Square brackets hold non-standard residues; d marks the D form. Peptide text beside a SMILES is read from it. X1 = CC(C)CCCCCCCCC[C@H](CC(=O)[*:1])O[*:2]; X2 = CCC(C)CCCCCCCCCCC(CC(=O)[*:2])N[*:1]
What was measured:
[1] = lipopeptides of B. subtilis; cited from earlier work
M. tuberculosis H37Rv = assay: MIC by resazurin microtitre assay (REMA); format: cell-based; conditions: Mycobacterium tuberculosis, 240 h, read-out: MIC, M. tuberculosis H37Rv
[2] = Solubility in water / appearance of solution; format: physicochemical
Text: C15 iturin A is an example of a lipopeptide able to form micelles and is water-soluble. The inventors suspect that C15 iturin A may enable other lipopeptides to be solubilised in water and potentially form mixed micelles enabling them to target the bacterial cell. To test this, the inventors mixed water solubilised C15 iturin A with a commercial surfactin (Sigma S3523; derived from B. subtilis and a mixture of C13-C15 surfactins). […] The presence of C15 iturin A enables the solubilisation of […] in water and probably all or many of the other lipopeptides present in or on the cell wall of SG277 and other Bacillus species. The important requirements for activity are the concentration of lipopeptides that are produced (since micelles can only be formed at levels above a critical threshold). The micelles formed are most likely to be mixed micelles (i.e., carrying different lipopeptide species but all carrying C15 iturin A)(at least for B. amyloliquefaciens).

CD630 [3] = assay: Microdilution assay of inhibitory activity against C. difficile strain 630; conditions: for activity to CD630 of commercial lipopeptides: commercial (SIGMA) samples, alone or combined
CD630 [4] = assay: Bacteriolytic vs bacteriocidal vs bacteriostatic activity on log-phase CD630 cultures (OD600, CFU); format: cell-based, C. difficile; conditions: activity normalised; added at log phase
Description: Fractions 1-3 were analysed for their ability to inhibit growth of cultures of CD630 by addition of test material at the log phase of cell growth (OD600˜0.3). Test materials were diluted in dH2O to normalise so that each sample to be tested carried the same activity/volume. […] of diluted test material was added to 1 ml of CD630 culture and 0.2 ml removed hourly for OD600 readings.
Optical density (OD600) was measured before and after addition of test material. A decline in OD600 indicates bacteriolytic activity while stalling of the increase in OD600 indicates either bacteriostatic or bacteriocidal growth. On the other hand a decline in CFU/ml indicates both bacteriolytic and/or bacteriocidal activity. (FIGS. 22A and 22B and Table 13).

## CCC(C)CCCCCCCCCCC1CC(=O)N[C@@H](CC(N)=O)C(=O)N[C@@H](CCC(N)=O)C(=O)N2CCC[C@H]2C(=O)N[C@H](Cc2ccc(O)cc2)C(=O)N[C@H](CC(N)=O)C(=O)N[C@H](CC(N)=O)C(=O)N[C@H](CO)C(=O)N[C@@H](CC(N)=O)C(=O)N1 (some centres unmarked) [mycosubtilin, Mycosubtilin] (cyclo(NQP[dY][dN][dN][dS]N[X2]))
[1]
  micelle size: 8-18 nm

## CO[C@H]1/C=C/O[C@@]2(C)Oc3c(C)c(O)c4c(O)c(c(/C=N/N5CCN(C)CC5)c(O)c4c3C2=O)NC(=O)/C(C)=C\C=C\[C@H](C)[C@H](O)[C@@H](C)[C@@H](O)[C@@H](C)[C@H](OC(C)=O)[C@@H]1C [Rifampicin]
M. tuberculosis H37Rv
  MIC: 0.5 µg/mL (≈ 0.608 µM)

## NNC(=O)c1ccncc1 [Isoniazid]
M. tuberculosis H37Rv
  MIC: 0.25 µg/mL (≈ 1.82 µM)

## CC(C)CCCCCCCCC[C@@H]1CC(=O)N[C@@H](CCC(=O)O)C(=O)N[C@@H](CC(C)C)C(=O)N[C@H](CC(C)C)C(=O)N[C@@H](C(C)C)C(=O)N[C@@H](CC(=O)O)C(=O)N[C@H](CC(C)C)C(=O)N[C@@H](CC(C)C)C(=O)O1 [surfactin, Surfactin] (EL[dL]VD[dL]L; linker N-C via X1)
[2]
  solubility in water: not soluble in water
[1]
  micelle size: 5-105 nm
CD630 [3]
  activity against C. difficile (in words): no activity
  activity to CD630 of commercial lipopeptides: unable to demonstrate any activity; also recorded: none showed activity

## CC(N)C(=O)NC(C[C@@H]1C=C(Cl)C(=O)CC1)C(=O)O (some centres unmarked) [Chlorotetaine]
CD630 [4]
  Bacteriocidal (cessation of cell growth, CD630 cfu/ml): bacteriocidal

## Iturin A
CD630 [3]
  activity to CD630 of commercial lipopeptides: unable to demonstrate any activity
CD630 [3]; listed as iturin
  activity to CD630 of commercial lipopeptides: none showed activity

## fengycin
CD630 [3]
  activity to CD630 of commercial lipopeptides: none showed activity

Reference: US12171734B2, “Pathogenic bacteria” (Sporegen Limited, priority 2018, dated 2024)
